Assay results: ChEMBL document CHEMBL3758109, “A novel triazole derivative of betulinic acid induces extrinsic and intrinsic apoptosis in human leukemia HL-60 cells” (Eur J Med Chem, 2016)

Assays:
[1] = Cytotoxicity against human PC3 cells assessed as cell growth inhibition at 10 uM after 48 hrs by MTT assay; type: functional; conditions: PC-3, 48 h, read-out: GI
A549 [2] = assay: Cytotoxicity against human A549 cells assessed as cell growth inhibition at 10 uM after 48 hrs by MTT assay; type: functional; conditions: A549, 48 h, read-out: GI
[3] = Cytotoxicity against human MIAPaCa2 cells assessed as cell growth inhibition after 48 hrs by MTT assay; type: functional, cell-based; conditions: MIA PaCa-2, 48 h
[4] = Cytotoxicity against human PC3 cells assessed as cell growth inhibition after 48 hrs by MTT assay; type: functional, cell-based; conditions: PC-3, 48 h
[5] = Cytotoxicity against human MIAPaCa2 cells assessed as cell growth inhibition at 10 uM after 48 hrs by MTT assay; type: functional; conditions: MIA PaCa-2, 48 h, read-out: GI
[6] = Cytotoxicity against human HL60 cells assessed as cell growth inhibition after 48 hrs by MTT assay; type: functional, cell-based; conditions: HL-60, 48 h
[7] = Cytotoxicity against human HL60 cells assessed as cell growth inhibition at 10 uM after 48 hrs by MTT assay; type: functional; conditions: HL-60, 48 h, read-out: GI
A549 [8] = assay: Cytotoxicity against human A549 cells assessed as cell growth inhibition after 48 hrs by MTT assay; type: functional, cell-based; conditions: A549, 48 h

Compound | inhibition of growth at 10 µM [1] | inhibition of growth at 10 µM (A549 [2]) | IC50 [3] | IC50 [4] | inhibition of growth at 10 µM [5] | IC50 [6] | inhibition of growth at 10 µM [7] | IC50 (A549 [8])
C=C(C)[C@@H]1CC[C@]2(C(=O)OCc3cn(-c4ccc(Br)cc4)nn3)CC[C@]3(C)[C@H](CC[C@@H]4[C@@]5(C)CC[C@H](O)C(C)(C)[C@@H]5CC[C@]43C)[C@@H]12 | 45% | 54% | 7 µM | 25 µM | 61% | 25 µM | 39% | 8 µM
C=C(C)[C@@H]1CC[C@]2(C(=O)OCc3cn(-c4ccccc4)nn3)CC[C@]3(C)[C@H](CC[C@@H]4[C@@]5(C)CC[C@H](O)C(C)(C)[C@@H]5CC[C@]43C)[C@@H]12 | 25% | 27% | 18 µM | 18 µM | 39% | 27 µM | 11% | 18 µM
C=C(C)[C@@H]1CC[C@]2(C(=O)O)CC[C@]3(C)[C@H](CC[C@@H]4[C@@]5(C)CC[C@H](O)C(C)(C)[C@@H]5CC[C@]43C)[C@@H]12 [BETULINIC ACID] | 70% | 68% | 7 µM | 7 µM | 70% | 8 µM | 69% | 8 µM
C=C(C)[C@@H]1CC[C@]2(C(=O)OCc3cn(-c4cccnc4Cl)nn3)CC[C@]3(C)[C@H](CC[C@@H]4[C@@]5(C)CC[C@H](O)C(C)(C)[C@@H]5CC[C@]43C)[C@@H]12 | 30% | 40% | 8 µM | 69 µM | 55% | 18 µM | 46% | 50 µM
C=C(C)[C@@H]1CC[C@]2(C(=O)OCc3cn(-c4ccc5c(c4)OCO5)nn3)CC[C@]3(C)[C@H](CC[C@@H]4[C@@]5(C)CC[C@H](O)C(C)(C)[C@@H]5CC[C@]43C)[C@@H]12 | 49% | 53% | 8 µM | 9 µM | 56% | 8 µM | 53% | 8 µM
C=C(C)[C@@H]1CC[C@]2(C(=O)OCc3cn(-c4ccc(OC)c(OC)c4)nn3)CC[C@]3(C)[C@H](CC[C@@H]4[C@@]5(C)CC[C@H](O)C(C)(C)[C@@H]5CC[C@]43C)[C@@H]12 | 8% | 6% | 21 µM | 11 µM | 8% | 8 µM | 7% | 16 µM
C=C(C)[C@@H]1CC[C@]2(C(=O)OCc3cn(-c4ccccc4OC)nn3)CC[C@]3(C)[C@H](CC[C@@H]4[C@@]5(C)CC[C@H](O)C(C)(C)[C@@H]5CC[C@]43C)[C@@H]12 | 3% | 12% | 9 µM | > 100 µM | 50% | 29 µM | 34% | > 100 µM
C=C(C)[C@@H]1CC[C@]2(C(=O)OCc3cn(-c4ccc(NC(=O)c5ccccc5)cc4)nn3)CC[C@]3(C)[C@H](CC[C@@H]4[C@@]5(C)CC[C@H](O)C(C)(C)[C@@H]5CC[C@]43C)[C@@H]12 | 21% | 2% | – | – | 0% | – | 0% | –
C=C(C)[C@@H]1CC[C@]2(C(=O)OCc3cn(-c4ccc(-c5ccccc5)cc4)nn3)CC[C@]3(C)[C@H](CC[C@@H]4[C@@]5(C)CC[C@H](O)C(C)(C)[C@@H]5CC[C@]43C)[C@@H]12 | 10% | 5% | – | – | 10% | – | 13% | –
C=C(C)[C@@H]1CC[C@]2(C(=O)OCc3cn(-c4cccc5c(O)cccc45)nn3)CC[C@]3(C)[C@H](CC[C@@H]4[C@@]5(C)CC[C@H](OCc6cn(-c7cccc8c(O)cccc78)nn6)C(C)(C)[C@@H]5CC[C@]43C)[C@@H]12 | 18% | 18% | – | – | 19% | – | 23% | –
C=C(C)[C@@H]1CC[C@]2(C(=O)OCc3cn(-c4ccccc4C#N)nn3)CC[C@]3(C)[C@H](CC[C@@H]4[C@@]5(C)CC[C@H](O)C(C)(C)[C@@H]5CC[C@]43C)[C@@H]12 | 6% | 9% | – | – | 4% | – | 22% | –
C=C(C)[C@@H]1CC[C@]2(C(=O)OCc3cn(-c4ccc(C#N)cc4)nn3)CC[C@]3(C)[C@H](CC[C@@H]4[C@@]5(C)CC[C@H](O)C(C)(C)[C@@H]5CC[C@]43C)[C@@H]12 | 46% | 63% | 8 µM | 12 µM | 57% | 8 µM | 55% | 7 µM
C=C(C)[C@@H]1CC[C@]2(C(=O)OCc3cn(-c4cccc(OC)c4)nn3)CC[C@]3(C)[C@H](CC[C@@H]4[C@@]5(C)CC[C@H](O)C(C)(C)[C@@H]5CC[C@]43C)[C@@H]12 | 10% | 10% | 22 µM | 25 µM | 28% | 25 µM | 5% | 25 µM
C=C(C)[C@@H]1CC[C@]2(C(=O)OCc3cn(-c4cc(F)c(F)cc4Br)nn3)CC[C@]3(C)[C@H](CC[C@@H]4[C@@]5(C)CC[C@H](O)C(C)(C)[C@@H]5CC[C@]43C)[C@@H]12 | 17% | 10% | 27 µM | 100 µM | 36% | 12 µM | 48% | 100 µM
C=C(C)[C@@H]1CC[C@]2(C(=O)OCc3cn(-c4cccc(OCc5ccc(F)cc5)c4)nn3)CC[C@]3(C)[C@H](CC[C@@H]4[C@@]5(C)CC[C@H](O)C(C)(C)[C@@H]5CC[C@]43C)[C@@H]12 | 4% | 6% | – | – | 9% | – | 32% | –
C=C(C)[C@@H]1CC[C@]2(C(=O)OCc3cn(-c4ccc5cc(OC)ccc5c4)nn3)CC[C@]3(C)[C@H](CC[C@@H]4[C@@]5(C)CC[C@H](O)C(C)(C)[C@@H]5CC[C@]43C)[C@@H]12 | 33% | 22% | > 100 µM | 31 µM | 12% | 29 µM | 35% | > 100 µM
C=C(C)[C@@H]1CC[C@]2(C(=O)OCc3cn(-c4cc(C)ccc4C)nn3)CC[C@]3(C)[C@H](CC[C@@H]4[C@@]5(C)CC[C@H](O)C(C)(C)[C@@H]5CC[C@]43C)[C@@H]12 | 44% | 41% | – | – | 38% | – | 51% | –
C=C(C)[C@@H]1CC[C@]2(C(=O)OCc3cn(-c4ccc(OC)cc4)nn3)CC[C@]3(C)[C@H](CC[C@@H]4[C@@]5(C)CC[C@H](O)C(C)(C)[C@@H]5CC[C@]43C)[C@@H]12 | 2% | 13% | 22 µM | > 100 µM | 36% | 30 µM | 8% | > 100 µM
C=C(C)[C@@H]1CC[C@]2(C(=O)OCc3cn(-c4ccc(C=O)cc4)nn3)CC[C@]3(C)[C@H](CC[C@@H]4[C@@]5(C)CC[C@H](O)C(C)(C)[C@@H]5CC[C@]43C)[C@@H]12 | 9% | 4% | – | – | 7% | – | 21% | –
C=C(C)[C@@H]1CC[C@]2(C(=O)OCc3cn(-c4ccc(C)cc4)nn3)CC[C@]3(C)[C@H](CC[C@@H]4[C@@]5(C)CC[C@H](O)C(C)(C)[C@@H]5CC[C@]43C)[C@@H]12 | 67% | 52% | – | – | 34% | – | 56% | –
C=C(C)[C@@H]1CC[C@]2(C(=O)OCc3cn(-c4c(F)ccc(OC)c4Br)nn3)CC[C@]3(C)[C@H](CC[C@@H]4[C@@]5(C)CC[C@H](O)C(C)(C)[C@@H]5CC[C@]43C)[C@@H]12 | 5% | 7% | – | – | 7% | – | 12% | –
C=C(C)[C@@H]1CC[C@]2(C(=O)OCc3cn(-c4ccccc4I)nn3)CC[C@]3(C)[C@H](CC[C@@H]4[C@@]5(C)CC[C@H](O)C(C)(C)[C@@H]5CC[C@]43C)[C@@H]12 | 29% | 40% | 8 µM | > 100 µM | 53% | 27 µM | 38% | > 100 µM
